Read-outs that look alike come from different tables or passages of the source.
How the values were obtained:
kOR (OPRK1) = kOR (OPRK1) (Homo sapiens (Human), UniProt P41145); test: KOR β-Arrestin antagonist assay (Tango OPRK1-bla U2OS cells); type: cell-based
Description: KOR β-Arrestin Agonist and Antagonist assays were preformed using the Tango™ OPRK1-bla U2OS cells from Invitrogen and purchased from ThermoFisher, catalog number K1576.

human mOR = human mOR (Homo sapiens (Human), UniProt P35372); test: cell-based
human dOR = human dOR (Homo sapiens (Human), UniProt P41143); test: cell-based; conditions: dOR cAMP Agonist Assay EC50, CHO Tag-lite human dOR stable cell line; forskolin
[1] = CHO Tag-lite human mOR stable cell line, forskolin 4 μM and DAMGO at EC90, read-out: mOR cAMP Antagonist Assay IC50

human dOR, sequence (P41143 whole entry): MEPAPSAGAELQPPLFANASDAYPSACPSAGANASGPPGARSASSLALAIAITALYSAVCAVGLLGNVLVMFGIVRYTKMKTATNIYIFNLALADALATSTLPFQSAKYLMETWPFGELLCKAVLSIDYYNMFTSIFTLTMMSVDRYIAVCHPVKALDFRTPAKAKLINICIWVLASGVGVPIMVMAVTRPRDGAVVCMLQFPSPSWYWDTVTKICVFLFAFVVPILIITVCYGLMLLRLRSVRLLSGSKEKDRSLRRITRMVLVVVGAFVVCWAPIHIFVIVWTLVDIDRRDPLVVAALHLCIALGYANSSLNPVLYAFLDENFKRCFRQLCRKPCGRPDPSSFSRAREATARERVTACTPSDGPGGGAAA
human mOR, sequence (P35372 whole entry): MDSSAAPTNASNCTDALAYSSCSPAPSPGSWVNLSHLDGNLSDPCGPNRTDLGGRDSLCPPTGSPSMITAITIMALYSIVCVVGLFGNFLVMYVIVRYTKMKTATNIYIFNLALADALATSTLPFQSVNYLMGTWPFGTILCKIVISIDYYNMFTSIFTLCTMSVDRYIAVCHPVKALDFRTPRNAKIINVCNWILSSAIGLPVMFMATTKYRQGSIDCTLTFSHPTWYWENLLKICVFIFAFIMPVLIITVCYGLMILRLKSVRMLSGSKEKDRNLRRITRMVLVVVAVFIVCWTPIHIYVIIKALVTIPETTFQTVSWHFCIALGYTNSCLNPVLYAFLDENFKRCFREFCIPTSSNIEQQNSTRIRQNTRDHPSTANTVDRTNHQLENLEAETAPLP
kOR (OPRK1), sequence (P41145 whole entry): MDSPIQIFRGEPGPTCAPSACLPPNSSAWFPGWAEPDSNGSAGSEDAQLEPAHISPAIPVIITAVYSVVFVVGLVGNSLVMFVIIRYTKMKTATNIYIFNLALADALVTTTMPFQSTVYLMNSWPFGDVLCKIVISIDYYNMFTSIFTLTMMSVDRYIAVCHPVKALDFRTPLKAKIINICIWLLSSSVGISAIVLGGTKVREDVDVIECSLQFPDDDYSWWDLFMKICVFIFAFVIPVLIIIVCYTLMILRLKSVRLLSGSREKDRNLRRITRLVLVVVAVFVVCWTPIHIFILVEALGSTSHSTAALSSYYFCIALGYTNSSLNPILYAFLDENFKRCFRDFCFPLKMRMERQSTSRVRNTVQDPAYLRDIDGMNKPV

## CN(C)[C@H](CNC(=O)C[C@@H](CC1CC1)c1cccnc1)Cc1ccc(C(N)=O)c(F)c1 [Compound 66, 4-((S)-3-((R)-4-cyclopropyl-3-(pyridin-3-yl)butanamido)-2-(dimethylamino)propyl)-2-fluorobenzamide]
kOR (OPRK1)
  IC50: < 300 nM
Human mOR
  IC50: < 300 nM

## CN(C)[C@H](CNC(=O)CC(c1ncc(Cl)cn1)C1(C(F)(F)F)CC1)Cc1ccc(C(N)=O)c(F)c1 (stereo partly drawn) [Compound 73, 4-[(2S)-3-[3-(5-chloropyrimidin-2-yl)-3-[1-(trifluoromethyl)cyclopropyl]propanamido]-2-(dimethylamino)propyl]-2-fluorobenzamide]
kOR (OPRK1)
  IC50: < 300 nM
Human mOR
  IC50: < 300 nM

## CN(C)[C@H](CNC(=O)C[C@H](c1cccnc1)C1(C(F)(F)F)CC1)Cc1ccc(C(N)=O)c(F)c1Cl [Compound 18, 3-chloro-4-[(2S)-2-(dimethylamino)-3-[(3R)-3-(pyridin-3-yl)-3-[1-(trifluoromethyl)cyclopropyl]propanamido]propyl]-2-fluorobenzamide]
kOR (OPRK1)
  IC50: < 300 nM
Human mOR
  IC50: > 3000 nM

## Cc1cc(O)cc(C)c1C[C@@H](CNC(=O)CC(c1cccnc1)C1(C(F)(F)F)CC1)N(C)C (stereo partly drawn) [Compound 316, N-((S)-2-(dimethylamino)-3-(4-hydroxy-2,6-dimethylphenyl)propyl)-3-(pyridin-3-yl)-3-(1-(trifluoromethyl)cyclopropyl)propanamide]
kOR (OPRK1)
  IC50: < 300 nM
Human mOR
  IC50: < 300 nM

## CN(C)[C@H](CNC(=O)CC(c1ncc(Cl)cn1)C1(C(F)(F)F)CC1)Cc1ccc(C(N)=O)c(F)c1Cl (stereo partly drawn) [Compound 22, 3-chloro-4-[(2S)-3-[3-(5-chloropyrimidin-2-yl)-3-[1-(trifluoromethyl)cyclopropyl]propanamido]-2-(dimethylamino)propyl]-2-fluorobenzamide]
kOR (OPRK1)
  IC50: < 300 nM
Human mOR; [1]
  IC50: < 300 nM

## COc1ccc(C(CC(=O)NC[C@H](Cc2ccc(C(N)=O)cc2Cl)N(C)C)C2(C(F)(F)F)CC2)cn1 (stereo partly drawn) [Compound 35, 3-chloro-4-[(2S)-2-(dimethylamino)-3-[3-(6-methoxypyridin-3-yl)-3-[1-(trifluoromethyl)cyclopropyl]propanamido]propyl]benzamide]
kOR (OPRK1)
  IC50: < 300 nM
Human mOR
  IC50: < 300 nM

## Cc1ncc([C@@H](CC(=O)NC[C@H](Cc2ccc(C(N)=O)c(F)c2)N2CCCC2)C2(C(F)(F)F)CC2)cn1 [Compound 65, 2-fluoro-4-((S)-3-((R)-3-(2-methylpyrimidin-5-yl)-3-(1-(trifluoromethyl)cyclopropyl)propanamido)-2-(pyrrolidin-1-yl)propyl)benzamide]
kOR (OPRK1)
  IC50: 300 to 3000 nM
Human mOR
  IC50: > 3000 nM

## CNC(=O)c1ccc(C[C@@H](CNC(=O)C[C@H](c2ccc(Cl)cn2)C2(C(F)(F)F)CC2)N(C)C)c(C)c1 [Compound 138, 4-((S)-3-((S)-3-(5-chloropyridin-2-yl)-3-(1-(trifluoromethyl)cyclopropyl)propanamido)-2-(dimethylamino)propyl)-N,3-dimethylbenzamide]
kOR (OPRK1)
  IC50: < 300 nM

## CNC(=O)c1ccc(C[C@@H](CNC(=O)C[C@@H](c2ccc(Cl)cn2)C2(C(F)(F)F)CC2)N(C)C)c(C)c1 [Compound 137, 4-((S)-3-((R)-3-(5-chloropyridin-2-yl)-3-(1-(trifluoromethyl)cyclopropyl)propanamido)-2-(dimethylamino)propyl)-N,3-dimethylbenzamide]
kOR (OPRK1)
  IC50: < 300 nM

## CC(C)[C@@H](CC(=O)NC[C@H](Cc1ccc2[nH]ncc2c1)N(C)C)c1ccccc1 [Compound 219, (R)-N-((S)-2-(dimethylamino)-3-(1H-indazol-5-yl)propyl)-4-methyl-3-phenylpentanamide]
Human dOR
  EC50: 300 to 3000 nM
Human mOR; [1]
  IC50: < 300 nM

## CC(C)[C@@H](CC(=O)NC[C@H](Cc1ccc2[nH]c(=O)oc2c1)N(C)C)c1ccccc1 [Compound 173, (R)-N-((S)-2-(dimethylamino)-3-(2-oxo-2,3-dihydrobenzo[d]oxazol-6-yl)propyl)-4-methyl-3-phenylpentanamide]
Human dOR
  EC50: < 300 nM
Human mOR
  IC50: < 300 nM

## CNC(=O)c1ccc(C[C@@H](CNC(=O)C[C@@H](CC(C)C)c2ccccc2)N(C)C)cc1Cl [Compound 147, 2-chloro-4-((S)-2-(dimethylamino)-3-((R)-5-methyl-3-phenylhexanamido)propyl)-N-methylbenzamide]
Human dOR
  EC50: < 300 nM
Human mOR
  IC50: < 300 nM

## C[C@@H](CC(=O)NC[C@H](Cc1ccc2c(c1)OCC(=O)N2)N(C)C)c1ccccc1 [Compound 187, (S)-N-((S)-2-(dimethylamino)-3-(3-oxo-3,4-dihydro-2H-benzo[b][1,4]oxazin-7-yl)propyl)-3-phenylbutanamide]
Human dOR
  EC50: < 300 nM
Human mOR
  IC50: < 300 nM

## CCCC[C@@H](CC(=O)NC[C@H](Cc1ccc2[nH]c(=O)oc2c1)N(C)C)c1ccccc1 [Compound 174]
Human dOR
  EC50: < 300 nM
Human mOR
  IC50: < 300 nM

## CN(C)[C@H](CNC(=O)C[C@H](c1ccccc1)C1CC1)Cc1ccc(O)cc1Cl [Compound 263, (S)-N-((S)-3-(2-chloro-4-hydroxyphenyl)-2-(dimethylamino)propyl)-3-cyclopropyl-3-phenylpropanamide]
Human dOR
  EC50: < 300 nM
Human mOR
  IC50: < 300 nM

## CNC(=O)c1ccc(C[C@@H](CNC(=O)C[C@@H](CC(C)C)c2ccccc2)N(C)C)cc1F [Compound 160, 4-((S)-2-(dimethylamino)-3-((R)-5-methyl-3-phenylhexanamido)propyl)-2-fluoro-N-methylbenzamide]
Human dOR
  EC50: < 300 nM
Human mOR
  IC50: < 300 nM

## CC(C)C[C@@H](CC(=O)NC[C@H](Cc1ccc2[nH]ncc2c1)N(C)C)c1ccccc1 [Compound 214, (S)-N-((S)-2-(dimethylamino)-3-(1H-indazol-5-yl)propyl)-5-methyl-3-phenylhexanamide]
Human dOR
  EC50: < 300 nM
Human mOR; [1]
  IC50: < 300 nM

## CC(C)[C@@H](CC(=O)NC[C@H](Cc1ccc2c(c1)CC(=O)N2)N(C)C)c1ccccc1 [Compound 182, (R)-N-((S)-2-(dimethylamino)-3-(2-oxoindolin-5-yl)propyl)-4-methyl-3-phenylpentanamide]
Human dOR
  EC50: > 3000 nM
Human mOR; [1]
  IC50: > 3000 nM

## CNC(=O)c1ccc(C[C@@H](CNC(=O)C[C@H](C)c2ccc(Cl)cc2)N(C)C)cc1F [Compound 156, 4-((S)-3-((S)-3-(4-chlorophenyl)butanamido)-2-(dimethylamino)propyl)-2-fluoro-N-methylbenzamide]
Human dOR
  EC50: 300 to 3000 nM
Human mOR; [1]
  IC50: < 300 nM

## CC(C)[C@@H](CC(=O)NC[C@H](Cc1ccc(C(N)=O)cc1Cl)N(C)C)c1ccccc1 [Compound 40, 3-chloro-4-((S)-2-(dimethylamino)-3-((R)-4-methyl-3-phenylpentanamido)propyl)benzamide]
Human dOR
  EC50: < 300 nM
Human mOR
  IC50: > 3000 nM

## CC(C)C[C@@H](CC(=O)NC[C@H](Cc1ccc2[nH]c(=O)oc2c1)N(C)C)c1ccccc1 [Compound 172, (3S)-N-[(2S)-2-(dimethylamino)-3-(2-oxo-2,3-dihydro-1,3-benzoxazol-6-yl)propyl]-5-methyl-3-phenylhexanamide]
Human dOR
  EC50: < 300 nM
Human mOR
  IC50: < 300 nM

## CN(C)[C@H](CNC(=O)C[C@@H](c1ccccc1)C1CC1)Cc1ccc2[nH]c(=O)oc2c1 [Compound 178, (R)-3-cyclopropyl-N-((S)-2-(dimethylamino)-3-(2-oxo-2,3-dihydrobenzo[d]oxazol-6-yl)propyl)-3-phenylpropanamide]
Human dOR
  EC50: 300 to 3000 nM
Human mOR
  IC50: < 300 nM

## CNC(=O)c1ccc(C[C@@H](CNC(=O)C[C@H](c2ccccc2)C(C)(C)C)N(C)C)cc1Cl [Compound 150, 2-chloro-4-((S)-3-((S)-4,4-dimethyl-3-phenylpentanamido)-2-(dimethylamino)propyl)-N-methylbenzamide]
Human dOR
  EC50: > 3000 nM
Human mOR
  IC50: < 300 nM

## C[C@@H](CC(=O)NC[C@H](Cc1ccc2[nH]ncc2c1)N(C)C)c1ccc(Cl)cc1 [Compound 220, (S)-3-(4-chlorophenyl)-N-((S)-2-(dimethylamino)-3-(1H-indazol-5-yl)propyl)butanamide]
Human dOR
  EC50: > 3000 nM
Human mOR
  IC50: < 300 nM

## CN1Cc2cc(O)ccc2C[C@H]1CNC(=O)C[C@H](c1ccccc1)C(C)(C)C [Compound 323, (S)-N-(((S)-7-hydroxy-2-methyl-1,2,3,4-tetrahydroisoquinolin-3-yl)methyl)-4,4-dimethyl-3-phenylpentanamide]
Human dOR
  EC50: < 300 nM
Human mOR
  IC50: < 300 nM

## CC(=O)Oc1ccc(C[C@@H](CNC(=O)C[C@H](C)c2ccccc2)N(C)C)cc1Cl [Compound 275, 2-chloro-4-((S)-2-(dimethylamino)-3-((S)-3-phenylbutanamido)propyl)phenyl acetate]
Human dOR
  EC50: < 300 nM
Human mOR
  IC50: < 300 nM

## C[C@H](CC(=O)NC[C@H](Cc1ccc2[nH]ncc2c1)N(C)C)c1cccc(F)c1 [Compound 215, (R)-N-((S)-2-(dimethylamino)-3-(1H-indazol-5-yl)propyl)-3-(3-fluorophenyl)butanamide]
Human dOR
  EC50: 300 to 3000 nM
Human mOR; [1]
  IC50: < 300 nM

## C[C@@H](CC(=O)NC[C@H](Cc1ccc2[nH]ncc2c1)N(C)C)c1ccccn1 [Compound 216, (S)-N-((S)-2-(dimethylamino)-3-(1H-indazol-5-yl)propyl)-3-(pyridin-2-yl)butanamide]
Human dOR
  EC50: 300 to 3000 nM
Human mOR; [1]
  IC50: < 300 nM

## CNC(=O)c1ccc(C[C@@H](CNC(=O)C[C@H](C)c2ccccn2)N(C)C)cc1F [Compound 163, 4-((S)-2-(dimethylamino)-3-((S)-3-(pyridin-2-yl)butanamido)propyl)-2-fluoro-N-methylbenzamide]
Human dOR
  EC50: > 3000 nM
Human mOR
  IC50: < 300 nM

## Cc1cc(C(N)=O)cc(C)c1C[C@@H](CNC(=O)C[C@H](CC(C)C)c1ccccc1)N(C)C [Compound 9, 4-[(2S)-2-(dimethylamino)-3-[(3S)-5-methyl-3-phenylhexanamido]propyl]-3,5-dimethylbenzamide]
Human dOR
  EC50: > 3000 nM
Human mOR
  IC50: < 300 nM

Reference: US11634396B2 (priority 2021, dated 2023)
